Measurements: paper PMC11062894, “Protein-based bandpass filters for controlling cellular signaling with chemical inputs” (Nature Chemical Biology, 2023)
Values joined by “and” are separate entries in the source; they are usually repeats but may differ in a detail not shown here. Identical values can stand only once.

Key:
BclXL–LD3 interaction = BclXL–LD3 interaction (Homo sapiens, UniProt Q07817); experiment: SPR drug competition assay, BclXL–LD3; type: binding; conditions: for Normalization of Response units / Response units: BclXL, Supp Fig 2a
Bcl2–LD3 interaction = Bcl2–LD3 interaction (Homo sapiens, UniProt P10415); experiment: SPR drug competition assay, Bcl2–LD3; type: binding; conditions: for Normalization of Response units / Response units: Bcl2, Supp Fig 2a
Protocol: Drug IC50 values for disrupting heterodimers were measured on a Biacore 8K device. A 5 µM portion of analyte was mixed with 10 µM of BclXL or Bcl2 inhibitors according to the analyte. The mixtures of analyte and drug were injected onto the LD3 immobilized channel.
(§1) Binding affinities of SPR drug competition assays were calculated using three-parameter nonlinear regression in GraphPad Prism (v.8.3.0). Representative data of cell assays are presented as individual values and mean values (bars). n = 3 refers to biological replicates. All IC50 or EC50 values of cell assays reported were calculated using four-parameter nonlinear regression ± s.d. Bandpass features of cutoff concentrations and Bandwidth90% were estimated based on the curve fitted using bell-shaped curve nonlinear regression in GraphPad Prism (v.8.3.0). […]
This assay is designed to test if the drug of interest can specifically disrupt the
interaction between LD3 and BclXL/Bcl2. The drug-receptors (Bcl2, BclXL) are immobilized on the
different channels of the sensor chip, then the binding sites are saturated with LD3. […]

[1] = target: GEMS with the dual-drug-controlled (A-1155463, venetoclax) switch (Bcl2 and BclXL–LD3) in HEK293T cells (Homo sapiens, UniProt P10415); experiment: GEMS SEAP reporter assay, dual-drug-controlled (A-1155463, venetoclax) switch; type: cell-based; conditions: for SEAP (U/L): Figure 2c, ON-phase
Text: In the first step, we sought to construct a dual-drug-controlled switch to test whether the ON and OFF switching processes can be combined in our receptor architecture. We used Bcl2 and BclXL as the orthogonal drug receptors, which interact with the LD3 protein and respond to their own specific inhibitors. In such a setting, the dual-drug-controlled switch will turn ON in response to one drug and OFF in response to the other, thus mimicking bandpass filtering behavior (Supplementary Fig. 1d). […] To test the switch behavior, we employed the generalizable extracellular molecule sensor (GEMS) platform, which senses extracellular molecules and thus regulates cell surface signaling pathways (Fig. 2a). This receptor platform is based on a mutated EpoR extracellular and transmembrane domain fused to an IL-6RB intracellular domain. Dimerization of EpoR extracellular domains is controlled by N-terminally fused inducible dimerization domains, which drive IL-6RB activation and STAT3 signaling. The Bcl2 and BclXL–LD3 complexes were fused to the extracellular EpoR domains. […] The dimerization of Bcl2 and LD3 causes EpoR extracellular domain dimerization and triggers JAK/STAT3 signaling. Active STAT3 drives the expression of a reporter protein (secreted alkaline phosphatase (SEAP)) controlled by a STAT3-dependent promoter.
(§2) HEK293T cells were seeded in a 96-well plate 24 h before transfection. The transfection mix in each well consisted of 3 ng of constitutive human CMV promoter driven mammalian STAT3 expression vector (PhCMV-STAT3-pA), 30 ng of STAT3-induced reporter expression (OStat3-PhCMVmin-SEAP-pA) and 50 ng of expression vectors for each GEMS receptor chain (PSV40-IgK-(drughigh receptor)-EpoRm-IL-6RBm-pA and PSV40-IgK-(druglow receptor-GGGGSX3-LD3)-EpoRm-IL-6RBm-pA). For the specific drughigh receptor and druglow receptor used in the different cellular assays, they are indicated as wild type or with mutations. Then, plasmid DNA was mixed with 50 μl opti-MEM (Thermo Fisher) and 600 ng of polyethyleneimine (Polysciences, catalog no. 24765-1). For drug treatment experiments, drugs were added 12 h post-transfection and incubated with cells for 24 h before the SEAP reporter detection assay.
(§3) SEAP activity (U l^−1) in cell culture supernatants was quantified by kinetic measurements at 405 nm (1 minute per measurement for 30 cycles) of absorbance increase due to phosphatase-mediated hydrolysis of para-nitrophenyl phosphate (pNPP).
Binding affinities of SPR drug competition assays were calculated using three-parameter nonlinear regression in GraphPad Prism (v.8.3.0). Representative data of cell assays are presented as individual values and mean values (bars). n = 3 refers to biological replicates. All IC50 or EC50 values of cell assays reported were calculated using four-parameter nonlinear regression ± s.d. Bandpass features of cutoff concentrations and Bandwidth90% were estimated based on the curve fitted using bell-shaped curve nonlinear regression in GraphPad Prism (v.8.3.0).

[2] = target: GEMS with the dual-drug-controlled (venetoclax, A-1155463) switch (BclXL and Bcl2–LD3) in HEK293T cells (Homo sapiens, UniProt P10415); experiment: GEMS SEAP reporter assay, dual-drug-controlled (venetoclax, A-1155463) switch; type: cell-based; conditions: for SEAP (U/L): Figure 2f, OFF-phase
Protocol: as §2, §3, §1

Bcl2 = conditions: cited from earlier work
[3] = Independent repeat, A-1155463 1 nM
[4] = Independent repeat, A-1155463 10 nM
[5] = Independent repeat, A-1155463 31.6 nM
[6] = Independent repeat, A-1155463 100 nM
[7] = Representative, A-1155463 10 nM
[8] = Representative, A-1155463 31.6 nM
[9] = Representative, A-1155463 100 nM
[10] = Representative, A-1155463 316 nM

Sequence of Bcl2–LD3 interaction (P10415 1-207 limits assumed): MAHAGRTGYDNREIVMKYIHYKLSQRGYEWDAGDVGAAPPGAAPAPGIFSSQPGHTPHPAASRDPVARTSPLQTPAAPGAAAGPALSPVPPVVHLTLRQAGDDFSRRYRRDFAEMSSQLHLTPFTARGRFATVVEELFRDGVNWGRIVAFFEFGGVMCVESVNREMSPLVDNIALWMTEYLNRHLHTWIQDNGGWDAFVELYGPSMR
Sequence of GEMS with the dual-drug-controlled (venetoclax, A-1155463) switch (BclXL and Bcl2–LD3) in HEK293T cells (P10415 whole entry): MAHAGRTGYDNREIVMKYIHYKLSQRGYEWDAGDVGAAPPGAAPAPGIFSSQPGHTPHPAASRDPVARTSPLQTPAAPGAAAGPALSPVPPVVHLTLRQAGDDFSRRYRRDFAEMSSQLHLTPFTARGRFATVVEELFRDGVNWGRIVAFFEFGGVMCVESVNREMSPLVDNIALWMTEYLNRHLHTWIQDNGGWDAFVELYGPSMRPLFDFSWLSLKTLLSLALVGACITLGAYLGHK
Sequence of GEMS with the dual-drug-controlled (venetoclax, A-1155463) switch (BclXL and Bcl2–LD3) in HEK293T cells (Q07817 whole entry, further chain): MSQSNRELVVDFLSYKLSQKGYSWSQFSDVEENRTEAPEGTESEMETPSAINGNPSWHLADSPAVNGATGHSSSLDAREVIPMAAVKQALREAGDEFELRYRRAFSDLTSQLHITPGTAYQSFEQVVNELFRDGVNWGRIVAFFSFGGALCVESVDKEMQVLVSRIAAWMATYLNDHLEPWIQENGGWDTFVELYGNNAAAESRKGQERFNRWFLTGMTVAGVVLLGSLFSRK
Sequence of BclXL–LD3 interaction (Q07817 1-209 limits assumed): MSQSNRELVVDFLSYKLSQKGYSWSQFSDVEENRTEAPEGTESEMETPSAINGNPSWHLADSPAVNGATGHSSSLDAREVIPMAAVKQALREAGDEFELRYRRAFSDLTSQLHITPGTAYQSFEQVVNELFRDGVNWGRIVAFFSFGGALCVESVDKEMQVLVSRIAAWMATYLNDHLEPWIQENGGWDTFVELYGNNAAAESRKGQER
Sequence of GEMS with the dual-drug-controlled (A-1155463, venetoclax) switch (Bcl2 and BclXL–LD3) in HEK293T cells (Q07817 whole entry): as the sequence (Q07817 whole entry, further chain) above
Sequence of GEMS with the dual-drug-controlled (A-1155463, venetoclax) switch (Bcl2 and BclXL–LD3) in HEK293T cells (P10415 whole entry): as the sequence (P10415 whole entry) above

CN(C)CC#Cc1ccc(OCCCc2sc(N3CCc4cccc(C(=O)Nc5nc6ccccc6s5)c4C3)nc2C(=O)O)c(F)c1 [A-1155463]
Normalization of Response units (BclXL–LD3 interaction; A11 0.01): 102.002 | Response units (BclXL–LD3 interaction; A11 0.01): 136.071 | Normalization of Response units (BclXL–LD3 interaction; A11 0.1): 97.9313 | Response units (BclXL–LD3 interaction; A11 0.1): 130.64 | Normalization of Response units (BclXL–LD3 interaction; A11 1): 94.098 | Response units (BclXL–LD3 interaction; A11 1): 125.527 | Normalization of Response units (BclXL–LD3 interaction; A11 10): 84.7556 | Response units (BclXL–LD3 interaction; A11 10): 113.064 | Normalization of Response units (BclXL–LD3 interaction; A11 100): 61.7671 | Response units (BclXL–LD3 interaction; A11 100): 82.3973 | Normalization of Response units (BclXL–LD3 interaction; A11 1000): 27.7573 | Response units (BclXL–LD3 interaction; A11 1000): 37.0282 | Normalization of Response units (BclXL–LD3 interaction; A11 10000): 14.6141 | Response units (BclXL–LD3 interaction; A11 10000): 19.4952 | IC50 (BclXL–LD3 interaction; prevents BclXL from binding to LD3): 106 nM | Normalization of Response units (Bcl2–LD3 interaction; A11 0.01): 92.1843 | Response units (Bcl2–LD3 interaction; A11 0.01): 21.2577 | Normalization of Response units (Bcl2–LD3 interaction; A11 0.1): 80.8291 | Response units (Bcl2–LD3 interaction; A11 0.1): 18.6392 | Normalization of Response units (Bcl2–LD3 interaction; A11 1): 73.8912 | Response units (Bcl2–LD3 interaction; A11 1): 17.0393 | Normalization of Response units (Bcl2–LD3 interaction; A11 10): 65.6037 | Response units (Bcl2–LD3 interaction; A11 10): 15.1282 | Normalization of Response units (Bcl2–LD3 interaction; A11 100): 63.1974 | Response units (Bcl2–LD3 interaction; A11 100): 14.5733 | Normalization of Response units (Bcl2–LD3 interaction; A11 1000): 71.7979 | Response units (Bcl2–LD3 interaction; A11 1000): 16.5566 | Normalization of Response units (Bcl2–LD3 interaction; A11 10000): 76.7051 | Response units (Bcl2–LD3 interaction; A11 10000): 17.6882 | effect on the Bcl2–LD3 interaction (Bcl2–LD3 interaction; SPR drug competition): does not affect | EC50 ([1]; A-1155463 dose response, SEAP, read-out: EC50 of the ON phase): 23 nM | SEAP (U/L) [1, 3]: 42.7182 U/L and 41.8919 U/L and 38.4512 U/L | SEAP (U/L) [1, 4]: 156.072 U/L and 146.503 U/L and 188.411 U/L | SEAP (U/L) [1, 5]: 331.126 U/L and 300.096 U/L and 322.732 U/L | SEAP (U/L) [1, 6]: 407.571 U/L and 388.702 U/L and 469.003 U/L | SEAP (U/L) ([1]; Representative, A-1155463 1 nM): 15.8426 U/L and 13.5232 U/L and 13.6294 U/L | SEAP (U/L) [1, 7]: 26.67 U/L and 26.9995 U/L and 28.8916 U/L | SEAP (U/L) [1, 8]: 53.4598 U/L and 53.7585 U/L and 50.2237 U/L | SEAP (U/L) [1, 9]: 77.0863 U/L and 99.712 U/L and 86.8586 U/L | SEAP (U/L) [1, 10]: 74.2135 U/L | IC50 ([2]; A-1155463-controlled OFF phase): 103 nM | decrease in the OFF phase ([2]; Fig 2e): close to tenfold | SEAP (U/L) ([2]; Independent repeat2, A-1155463 0.001 nM): 136.822 U/L and 169.801 U/L and 176.875 U/L | SEAP (U/L) ([2]; Independent repeat2, A-1155463 0.1 nM): 103.12 U/L and 204.542 U/L and 189.519 U/L | SEAP (U/L) ([2]; Independent repeat2, A-1155463 1 nM): 92.9798 U/L and 167.805 U/L and 150.91 U/L | SEAP (U/L) ([2]; Independent repeat2, A-1155463 10 nM): 77.7029 U/L and 130.847 U/L and 121.179 U/L | SEAP (U/L) ([2]; Independent repeat2, A-1155463 31.6 nM): 58.2163 U/L and 85.6507 U/L and 74.3645 U/L | SEAP (U/L) ([2]; Independent repeat2, A-1155463 100 nM): 37.6382 U/L and 39.3259 U/L and 34.7513 U/L | SEAP (U/L) ([2]; Independent repeat2, A-1155463 316 nM): 10.089 U/L and 12.1866 U/L and 9.268 U/L | SEAP (U/L) ([2]; Independent repeat2, A-1155463 1000 nM): 8.119 U/L and 8.577 U/L and 7.014 U/L | SEAP (U/L) ([2]; Independent repeat, A-1155463 0.001 nM): 544.306 U/L and 608.147 U/L and 640.878 U/L | SEAP (U/L) ([2]; Independent repeat, A-1155463 0.01 nM): 596.894 U/L and 605.557 U/L and 647.084 U/L | SEAP (U/L) ([2]; Independent repeat, A-1155463 0.1 nM): 460.121 U/L and 563.478 U/L and 550.17 U/L | SEAP (U/L) [2, 3]: 534.525 U/L and 587.537 U/L and 614.263 U/L | SEAP (U/L) [2, 4]: 528.461 U/L and 563.236 U/L and 515.428 U/L | SEAP (U/L) [2, 5]: 441.716 U/L and 544.633 U/L and 570.455 U/L | SEAP (U/L) [2, 6]: 308.86 U/L and 496.735 U/L and 439.283 U/L | SEAP (U/L) ([2]; Independent repeat, A-1155463 316 nM): 344.351 U/L and 390.049 U/L and 370.506 U/L | SEAP (U/L) ([2]; Representative, A-1155463 0.001 nM): 452.056 U/L and 640.781 U/L and 545.972 U/L | SEAP (U/L) ([2]; Representative, A-1155463 0.01 nM): 482.724 U/L and 651.317 U/L and 591.102 U/L | SEAP (U/L) ([2]; Representative, A-1155463 0.1 nM): 443.461 U/L and 562.309 U/L and 475.562 U/L | SEAP (U/L) ([2]; Representative, A-1155463 1 nM): 415.408 U/L and 516.033 U/L and 492.483 U/L | SEAP (U/L) [2, 7]: 401.724 U/L and 506.387 U/L and 481.044 U/L | SEAP (U/L) [2, 8]: 379.199 U/L and 421.639 U/L and 391.615 U/L | SEAP (U/L) [2, 9]: 206.108 U/L and 261.394 U/L and 267.779 U/L | SEAP (U/L) [2, 10]: 72.1001 U/L and 78.6193 U/L and 80.8054 U/L | SEAP (U/L) ([2]; Representative, A-1155463 1000 nM): 15.1572 U/L and 16.9337 U/L and 16.4073 U/L | binding to Bcl2 weaker than to BclXL (Bcl2): more than 7,000 fold
